In ChEMBL document CHEMBL5465560, “Selectivity Literature for EUbOPEN Chemogenomic Library” (2024):

Assays:
[1] = molecular target: T1, Serine/threonine-protein kinase 3 (Homo sapiens) (UniProt Q13188); settings: at 10 µM
T1 sequence (whole entry): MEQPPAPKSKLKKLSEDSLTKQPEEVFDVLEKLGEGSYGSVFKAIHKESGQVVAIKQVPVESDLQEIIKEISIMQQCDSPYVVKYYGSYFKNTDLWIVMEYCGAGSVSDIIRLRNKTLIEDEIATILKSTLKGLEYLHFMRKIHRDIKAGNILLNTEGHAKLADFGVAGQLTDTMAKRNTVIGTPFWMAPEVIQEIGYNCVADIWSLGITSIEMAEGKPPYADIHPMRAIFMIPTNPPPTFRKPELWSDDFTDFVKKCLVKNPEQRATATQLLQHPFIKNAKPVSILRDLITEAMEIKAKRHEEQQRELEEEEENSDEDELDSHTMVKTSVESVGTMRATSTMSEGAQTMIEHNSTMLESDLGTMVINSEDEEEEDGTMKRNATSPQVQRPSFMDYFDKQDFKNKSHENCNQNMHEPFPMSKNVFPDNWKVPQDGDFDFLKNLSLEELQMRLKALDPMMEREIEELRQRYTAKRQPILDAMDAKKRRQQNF

[2] = molecular target: Interleukin-1 receptor-associated kinase 1 (Homo sapiens) (UniProt P51617); assay: Selectivity interaction (KinomeScan (DiscoverX)) EUB0000655a IRAK1; settings: at 10 µM
[3] = molecular target: Mitogen-activated protein kinase 1 (Homo sapiens, UniProt P28482); assay: Selectivity interaction (KinomeScan (DiscoverX)) EUB0000045b MAPK1
[4] = molecular target: T2, cGMP-dependent protein kinase 2 (Homo sapiens) (UniProt Q13237); assay: Selectivity interaction (Kinase panel (Invitrogen)) EUB0000639a PRKG2; settings: at 200 nM
T2 sequence (whole entry): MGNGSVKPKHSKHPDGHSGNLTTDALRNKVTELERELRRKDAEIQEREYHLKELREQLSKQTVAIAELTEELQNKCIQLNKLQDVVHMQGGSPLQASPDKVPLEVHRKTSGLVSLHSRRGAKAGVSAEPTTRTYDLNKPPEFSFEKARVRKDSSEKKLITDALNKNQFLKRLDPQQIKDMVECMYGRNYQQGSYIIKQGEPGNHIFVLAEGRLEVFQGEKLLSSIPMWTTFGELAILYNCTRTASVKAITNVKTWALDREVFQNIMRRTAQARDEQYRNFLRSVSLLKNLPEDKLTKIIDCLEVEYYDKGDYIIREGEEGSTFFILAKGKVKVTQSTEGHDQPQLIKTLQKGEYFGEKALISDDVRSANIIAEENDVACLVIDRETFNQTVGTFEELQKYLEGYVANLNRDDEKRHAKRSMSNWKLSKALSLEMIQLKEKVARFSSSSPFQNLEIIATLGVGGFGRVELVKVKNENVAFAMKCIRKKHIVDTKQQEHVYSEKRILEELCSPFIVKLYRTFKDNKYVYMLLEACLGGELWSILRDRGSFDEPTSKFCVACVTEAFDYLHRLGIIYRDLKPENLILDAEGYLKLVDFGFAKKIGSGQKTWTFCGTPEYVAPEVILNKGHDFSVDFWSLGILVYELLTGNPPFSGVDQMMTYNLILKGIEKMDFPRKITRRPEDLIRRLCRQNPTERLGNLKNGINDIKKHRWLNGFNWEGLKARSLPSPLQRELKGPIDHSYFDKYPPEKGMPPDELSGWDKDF

[5] = molecular target: Ribosomal protein S6 kinase alpha-1 (Homo sapiens, UniProt Q15418); assay: Selectivity interaction (KinomeScan (DiscoverX)) EUB0000229b RPS6KA1; settings: at 10 µM
[6] = molecular target: Death-associated protein kinase 1 (Homo sapiens, UniProt P53355); assay: Selectivity interaction (KinomeScan (DiscoverX)) EUB0000229b DAPK1; settings: at 10 µM
[7] = molecular target: T3, Serine/threonine-protein kinase Nek1 (Homo sapiens) (UniProt Q96PY6); assay: Selectivity interaction (ProQinase) EUB0000171b NEK1
T3 sequence (whole entry): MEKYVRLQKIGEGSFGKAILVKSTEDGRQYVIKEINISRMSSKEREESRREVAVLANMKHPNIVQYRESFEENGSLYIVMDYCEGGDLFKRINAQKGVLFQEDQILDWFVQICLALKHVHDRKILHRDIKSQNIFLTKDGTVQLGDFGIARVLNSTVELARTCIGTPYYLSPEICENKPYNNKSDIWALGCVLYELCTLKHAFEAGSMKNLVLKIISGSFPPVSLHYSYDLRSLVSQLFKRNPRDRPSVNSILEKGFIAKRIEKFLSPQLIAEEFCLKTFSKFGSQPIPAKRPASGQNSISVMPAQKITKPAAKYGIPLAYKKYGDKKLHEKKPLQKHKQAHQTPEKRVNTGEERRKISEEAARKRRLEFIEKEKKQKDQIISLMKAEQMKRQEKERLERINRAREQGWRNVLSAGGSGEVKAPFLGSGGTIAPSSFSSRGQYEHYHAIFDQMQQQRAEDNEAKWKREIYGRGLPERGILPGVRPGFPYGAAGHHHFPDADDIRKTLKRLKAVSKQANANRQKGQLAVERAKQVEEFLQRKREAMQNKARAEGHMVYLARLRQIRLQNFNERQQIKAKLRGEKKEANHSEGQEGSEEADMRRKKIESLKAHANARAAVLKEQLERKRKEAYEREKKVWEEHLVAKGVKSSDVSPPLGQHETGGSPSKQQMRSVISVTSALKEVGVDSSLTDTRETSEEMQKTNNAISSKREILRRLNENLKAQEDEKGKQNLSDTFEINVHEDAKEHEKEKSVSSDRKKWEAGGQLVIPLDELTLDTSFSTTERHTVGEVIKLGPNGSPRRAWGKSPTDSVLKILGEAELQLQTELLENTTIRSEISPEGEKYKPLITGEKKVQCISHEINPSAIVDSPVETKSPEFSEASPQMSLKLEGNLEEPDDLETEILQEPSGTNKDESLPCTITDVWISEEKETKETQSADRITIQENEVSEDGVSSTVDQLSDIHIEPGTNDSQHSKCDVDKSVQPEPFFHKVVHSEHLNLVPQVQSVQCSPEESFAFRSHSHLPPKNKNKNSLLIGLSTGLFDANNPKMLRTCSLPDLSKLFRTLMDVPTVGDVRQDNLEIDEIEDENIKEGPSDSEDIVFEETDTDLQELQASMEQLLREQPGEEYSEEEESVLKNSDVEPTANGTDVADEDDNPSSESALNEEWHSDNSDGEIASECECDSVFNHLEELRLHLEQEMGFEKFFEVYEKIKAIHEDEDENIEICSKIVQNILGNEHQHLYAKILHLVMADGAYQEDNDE

[8] = molecular target: Phosphatidylinositol 3-kinase catalytic subunit type 3 (Homo sapiens, UniProt Q8NEB9); assay: Selectivity interaction (KinomeScan (DiscoverX)) EUB0001049a PIK3C3; settings: at 1 µM
Chain of Phosphatidylinositol 3-kinase catalytic subunit type 3 (Q8NEB9 whole entry): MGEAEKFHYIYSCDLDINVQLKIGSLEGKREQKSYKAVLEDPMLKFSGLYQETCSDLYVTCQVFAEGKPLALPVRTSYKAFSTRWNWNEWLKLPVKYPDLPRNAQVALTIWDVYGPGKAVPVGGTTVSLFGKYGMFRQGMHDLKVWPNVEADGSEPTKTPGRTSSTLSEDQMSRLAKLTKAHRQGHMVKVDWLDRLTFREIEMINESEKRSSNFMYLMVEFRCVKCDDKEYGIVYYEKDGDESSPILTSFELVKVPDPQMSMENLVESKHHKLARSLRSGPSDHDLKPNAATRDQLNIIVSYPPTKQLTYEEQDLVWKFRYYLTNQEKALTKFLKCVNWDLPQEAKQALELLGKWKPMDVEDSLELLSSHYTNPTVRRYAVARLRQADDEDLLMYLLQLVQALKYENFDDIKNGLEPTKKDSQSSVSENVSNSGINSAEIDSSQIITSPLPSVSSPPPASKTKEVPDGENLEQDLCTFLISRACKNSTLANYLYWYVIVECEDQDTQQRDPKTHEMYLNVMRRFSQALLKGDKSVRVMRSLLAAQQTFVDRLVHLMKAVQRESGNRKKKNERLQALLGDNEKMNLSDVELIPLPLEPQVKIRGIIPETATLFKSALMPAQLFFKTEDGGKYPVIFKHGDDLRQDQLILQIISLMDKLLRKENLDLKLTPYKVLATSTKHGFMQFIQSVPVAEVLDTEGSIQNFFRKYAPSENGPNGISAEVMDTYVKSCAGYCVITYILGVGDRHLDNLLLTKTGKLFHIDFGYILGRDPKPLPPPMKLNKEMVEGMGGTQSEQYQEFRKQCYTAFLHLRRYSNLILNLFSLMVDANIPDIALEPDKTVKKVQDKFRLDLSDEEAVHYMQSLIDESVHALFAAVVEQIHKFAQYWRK

Chain of Mitogen-activated protein kinase 1 (P28482 whole entry): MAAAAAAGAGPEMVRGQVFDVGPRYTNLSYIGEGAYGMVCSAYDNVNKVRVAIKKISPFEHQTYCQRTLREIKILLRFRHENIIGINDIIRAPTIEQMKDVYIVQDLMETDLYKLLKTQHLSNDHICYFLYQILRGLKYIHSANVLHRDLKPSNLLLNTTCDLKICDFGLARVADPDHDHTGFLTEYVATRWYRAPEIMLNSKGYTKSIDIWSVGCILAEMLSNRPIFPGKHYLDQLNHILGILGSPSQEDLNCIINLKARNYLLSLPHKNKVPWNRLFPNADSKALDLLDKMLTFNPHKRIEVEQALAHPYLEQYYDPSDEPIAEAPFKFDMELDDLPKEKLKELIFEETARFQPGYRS
Chain of Death-associated protein kinase 1 (P53355 whole entry, looked up): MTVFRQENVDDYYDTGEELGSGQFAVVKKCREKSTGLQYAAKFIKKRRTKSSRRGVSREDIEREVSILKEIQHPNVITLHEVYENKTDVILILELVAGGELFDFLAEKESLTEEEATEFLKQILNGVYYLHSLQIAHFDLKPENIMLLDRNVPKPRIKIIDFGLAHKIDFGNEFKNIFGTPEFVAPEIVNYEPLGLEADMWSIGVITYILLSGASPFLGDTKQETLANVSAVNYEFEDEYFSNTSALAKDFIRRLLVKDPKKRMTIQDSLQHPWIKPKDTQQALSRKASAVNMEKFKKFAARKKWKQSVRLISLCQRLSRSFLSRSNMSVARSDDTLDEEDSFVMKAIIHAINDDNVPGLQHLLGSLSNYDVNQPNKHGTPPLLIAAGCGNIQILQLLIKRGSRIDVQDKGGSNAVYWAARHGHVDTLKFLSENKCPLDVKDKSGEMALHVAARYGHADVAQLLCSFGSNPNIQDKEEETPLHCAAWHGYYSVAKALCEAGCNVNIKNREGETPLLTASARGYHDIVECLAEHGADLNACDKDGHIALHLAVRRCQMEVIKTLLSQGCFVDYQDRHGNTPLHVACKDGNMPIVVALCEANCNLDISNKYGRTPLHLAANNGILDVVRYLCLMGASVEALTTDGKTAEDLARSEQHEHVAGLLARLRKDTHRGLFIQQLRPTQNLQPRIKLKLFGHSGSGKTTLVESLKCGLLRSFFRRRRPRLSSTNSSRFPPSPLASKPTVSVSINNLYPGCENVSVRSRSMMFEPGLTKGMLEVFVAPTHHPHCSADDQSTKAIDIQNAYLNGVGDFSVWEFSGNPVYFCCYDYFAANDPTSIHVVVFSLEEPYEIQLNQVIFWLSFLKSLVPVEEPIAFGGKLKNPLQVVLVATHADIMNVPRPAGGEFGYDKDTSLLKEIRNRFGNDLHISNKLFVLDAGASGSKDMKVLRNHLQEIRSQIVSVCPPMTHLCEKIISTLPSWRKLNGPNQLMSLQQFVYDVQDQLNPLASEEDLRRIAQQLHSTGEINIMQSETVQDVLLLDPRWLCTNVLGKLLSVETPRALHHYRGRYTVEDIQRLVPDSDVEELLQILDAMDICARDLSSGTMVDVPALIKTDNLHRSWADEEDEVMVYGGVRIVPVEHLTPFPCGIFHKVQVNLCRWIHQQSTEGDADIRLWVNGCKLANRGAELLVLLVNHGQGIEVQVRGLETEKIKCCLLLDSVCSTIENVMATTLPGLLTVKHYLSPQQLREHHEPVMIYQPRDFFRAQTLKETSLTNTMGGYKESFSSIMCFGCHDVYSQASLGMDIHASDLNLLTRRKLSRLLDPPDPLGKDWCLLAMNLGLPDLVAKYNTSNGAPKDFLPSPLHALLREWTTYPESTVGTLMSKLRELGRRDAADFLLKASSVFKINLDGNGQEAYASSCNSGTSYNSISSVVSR
Chain of Ribosomal protein S6 kinase alpha-1 (Q15418 whole entry): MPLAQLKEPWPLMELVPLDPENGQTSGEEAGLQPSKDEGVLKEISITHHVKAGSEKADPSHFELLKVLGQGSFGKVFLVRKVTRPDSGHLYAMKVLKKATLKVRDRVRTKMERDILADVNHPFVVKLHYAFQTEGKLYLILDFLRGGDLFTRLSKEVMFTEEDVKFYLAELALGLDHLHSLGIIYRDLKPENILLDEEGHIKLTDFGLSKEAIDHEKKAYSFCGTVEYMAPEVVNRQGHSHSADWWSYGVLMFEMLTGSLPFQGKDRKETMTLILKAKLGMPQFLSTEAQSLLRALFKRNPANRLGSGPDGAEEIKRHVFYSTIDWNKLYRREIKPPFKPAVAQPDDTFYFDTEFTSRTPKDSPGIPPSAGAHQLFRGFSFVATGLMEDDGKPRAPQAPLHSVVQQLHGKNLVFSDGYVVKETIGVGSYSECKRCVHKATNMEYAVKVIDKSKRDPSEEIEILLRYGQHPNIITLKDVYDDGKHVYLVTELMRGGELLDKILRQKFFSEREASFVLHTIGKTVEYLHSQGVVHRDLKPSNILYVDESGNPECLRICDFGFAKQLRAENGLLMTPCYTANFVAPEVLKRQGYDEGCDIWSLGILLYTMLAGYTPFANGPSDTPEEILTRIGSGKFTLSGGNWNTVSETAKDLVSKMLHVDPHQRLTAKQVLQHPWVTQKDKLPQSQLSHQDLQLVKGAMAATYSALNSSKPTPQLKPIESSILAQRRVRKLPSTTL
Chain of Interleukin-1 receptor-associated kinase 1 (Homo sapiens) (P51617 whole entry, looked up): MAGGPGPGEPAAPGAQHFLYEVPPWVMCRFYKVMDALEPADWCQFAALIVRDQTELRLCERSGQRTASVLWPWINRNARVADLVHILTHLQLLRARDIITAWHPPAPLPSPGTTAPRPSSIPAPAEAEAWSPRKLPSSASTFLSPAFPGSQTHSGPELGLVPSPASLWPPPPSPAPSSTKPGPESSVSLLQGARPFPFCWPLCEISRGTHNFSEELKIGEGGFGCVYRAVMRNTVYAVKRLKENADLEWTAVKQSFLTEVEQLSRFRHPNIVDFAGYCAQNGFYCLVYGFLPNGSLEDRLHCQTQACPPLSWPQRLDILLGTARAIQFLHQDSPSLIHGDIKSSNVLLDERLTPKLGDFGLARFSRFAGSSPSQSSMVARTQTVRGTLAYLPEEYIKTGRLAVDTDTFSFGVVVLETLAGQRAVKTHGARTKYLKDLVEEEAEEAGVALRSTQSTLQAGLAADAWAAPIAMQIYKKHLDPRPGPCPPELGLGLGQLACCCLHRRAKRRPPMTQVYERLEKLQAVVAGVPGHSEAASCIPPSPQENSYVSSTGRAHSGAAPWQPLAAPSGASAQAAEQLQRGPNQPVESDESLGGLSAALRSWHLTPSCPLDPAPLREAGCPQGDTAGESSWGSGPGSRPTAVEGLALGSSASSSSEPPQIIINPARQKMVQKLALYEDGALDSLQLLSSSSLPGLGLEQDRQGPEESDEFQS

Compound: CCN(CC)CCCCNc1ncc2cc(-c3cc(OC)cc(OC)c3)c(NC(=O)NC(C)(C)C)nc2n1
- % of control [1]: 100%

Compound: CN(C)CCOc1ccc(-c2nc(-c3ccncc3)c(-c3ccc4c(c3)CC/C4=N\O)[nH]2)cc1
- % of control [2]: 16%

Compound: C=CC(=O)Nc1cc(-n2c(=O)ccc3cnc4ccc(-c5ccc(NS(C)(=O)=O)cc5)cc4c32)ccc1C
- % of control ([3]; at 1 µM): 94%
- % of control ([3]; at 10 µM): 100%

Compound: CC[C@@H]1[C@H](F)C(=O)N[C@@H]1COc1nccc2cc(C(N)=O)c(OC)cc12 [ZIMLOVISERTIB]
- % of inhibition [4]: 10.5%

Compound: COc1cc(N(C)c2ccnc3ccc(C(F)(F)F)cc23)cc(OC)c1OC
- % binding [5]: 93%
- % binding [6]: 94%

Compound: C=CC(=O)Nc1cccc(C(=O)Nc2ccc(Nc3cc(-c4[nH]c(SC)nc4C)ccn3)cc2)c1
- % of control ([7]; at 1 µM): 80%
- % of control ([7]; at 5 µM): 64%

Compound: COc1cc(Nc2nc(C)cc(-c3cnn4nc(OC)ccc34)n2)cc(C(F)(F)F)c1
- % of control [8]: 100%
